Source: patent US11040028B2, “Penicinotam derivative, preparation method and use thereof” (OCEAN UNIVERSITY OF CHINA, priority 2017, dated 2021)

Key:
Format in all cases: cell-based
[1] = test system: human lung fibroblasts HFL1; test: Anti-fibrosis activity test: inhibition of proliferation of human lung fibroblasts HFL1 (CCK-8); conditions: Homo sapiens, HFL1, 48 h
Procedure, shortened: (§1)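 IC50 values derive from CCK-8 absorbance (450 nm, 2 h reagent incubation) measured after a 48 h exposure to test compounds. Before dosing, cells plated at 2×10^4 cells/mL had attached for 24 h under 5% CO2 at 37° C; triplicate wells per concentration.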

[2] = test system: human hepatic stellate cells LX-2; test: Anti-fibrosis activity test: inhibition of proliferation of human hepatic stellate cells LX-2 (CCK-8); conditions: Homo sapiens, 48 h
Procedure, shortened: as §1

[3] = test system: mouse macrophages (RAW264.7); test: Lipopolysaccharide-induced NO secretion in macrophages (Griess); conditions: Mus musculus, RAW264.7, 24 h, RAW264.7, LPS 1 μg/ml, a/b isomers given as first/second symbol, read-out: IC50 (μM), inhibition of lipopolysaccharide-induced NO secretion in macrophages
Procedure, shortened: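 Percent inhibition of NO release was measured by Griess absorbance at 548 nm in supernatants. Cells were mouse RAW264.7 macrophages in 10% FBS DMEM, treated with graded compound concentrations and activated by LPS (1 μg/ml) for 24 h.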

BHK-21 cells = test: Anti-fibrosis activity test: inhibition of BHK-21 cell proliferation (CCK-8); conditions: Mesocricetus auratus, BHK-21, 48 h
Procedure, shortened: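 Cells seeded at 2×10^4 cells/mL, allowed to adhere 24 hours, then exposed to graded compound concentrations in triplicate for 48 hours at 37° C, 5% CO2. CCK-8 added for 2 hours, absorbance read at 450 nm; inhibition versus blank control used to derive IC50. Pirfenidone served as positive control.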

[4] = test system: human embryonic lung fibroblast IMR-90; test: Anti-fibrosis activity test: inhibition of proliferation of human embryonic lung fibroblast IMR-90 (CCK-8)
Procedure, shortened: as §1

[5] = test system: human fibrosarcoma cells HT-1080; test: Anti-fibrosis activity test: inhibition of proliferation of human fibrosarcoma cells HT-1080 (CCK-8); conditions: Homo sapiens, HT-1080, 48 h
Procedure, shortened: as §1

NF-κB = test: Immunological activity test: inhibition of NF-κB activity; conditions: initial concentration of 30 μM; a/b isomers given as first/second symbol; read-out: IC50 (μM), inhibitory activity against NF-κB
Procedure, shortened: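 Initial screen at 30 μM; parthenolide positive control. IC50s derived from follow-up analysis.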

[6] = test system: human dermal fibroblasts CCC-ESF-1; test: Anti-fibrosis activity test: inhibition of proliferation of human dermal fibroblasts CCC-ESF-1 (CCK-8); conditions: Fibroblast
Procedure, shortened: as §1

[7] = test system: cardiac fibroblast RAT-iCell-C002; test: Anti-fibrosis activity test: inhibition of proliferation of cardiac fibroblast RAT-iCell-C002 (CCK-8); conditions: Cardiac fibroblast, 48 h
Procedure, shortened: as §1

[8] = human lung fibroblasts HFL1, CCK-8, 48 hours
[9] = human hepatic stellate cells LX-2, CCK-8, 48 hours
[10] = CCK-8, 48 hours after administration
[11] = human embryonic lung fibroblast IMR-90, CCK-8, 48 hours
[12] = human fibrosarcoma cells HT-1080, CCK-8, 48 hours
[13] = human dermal fibroblasts CCC-ESF-1, CCK-8, 48 hours
[14] = cardiac fibroblast RAT-iCell-C002, CCK-8, 48 hours
[15] = Homo sapiens, IMR-90 cells, 48 h, CCK-8
[16] = Homo sapiens, CCC-ESF-1 cells, 48 h, CCK-8

| SMILES | IC50 [1, 8] [mM] | IC50 [2, 9] [mM] | IC50 [3] [µM] | IC50 (BHK-21 cells; [10]) [mM] | IC50 [4, 11] [mM] | IC50 [5, 12] [mM] | IC50 (NF-κB) [µM] | IC50 [6, 13] [mM] | IC50 [7, 14] [mM] | IC50 ([1]; HFL1 cells, 48 h, CCK-8) [mM] | IC50 ([2]; LX-2, 48 h, LX-2 cells, CCK-8) [mM] | IC50 (BHK-21 cells; 48 h, CCK-8) [mM] | IC50 [4, 15] [mM] | IC50 ([5]; HT-1080 cells, 48 h, CCK-8) [mM] | IC50 [6, 16] [mM] | IC50 ([7]; RAT-iCell-C002 cells, CCK-8) [mM] |
| --- | --- | --- | --- | --- | --- | --- | --- | --- | --- | --- | --- | --- | --- | --- | --- | --- |
| N#Cc1ccc(Cn2c3c(c(=O)c4ccccc42)C(=O)n2cccc2-3)cc1 [Compound 590a, 4-((9,10-Dioxo-9H-pyrrolizino[1,2-b]quinolin-4(10H)-yl)methyl)benzonitrile] | 0.05 to 5 | 0.05 to 5 | 1 to 10 | 0.05 to 5 | 0.05 to 5 | 0.05 to 5 | 1 to 10 | 0.05 to 5 | 0.05 to 5 |  |  |  |  |  |  |  |
| O=C1c2c(nc3ccccc3c2OCc2ccc(F)c(Cl)c2)-c2cccn21 [Compound 603b, 9-((3-chloro-4-fluorobenzyl)oxy)-10H-pyrrolizino[1,2-b]quinolin-10-one] | 0.05 to 5 | 0.05 to 5 | 1 to 10 | 0.05 to 5 | 0.05 to 5 | 0.05 to 5 | 1 to 10 | 0.05 to 5 | 0.05 to 5 |  |  |  |  |  |  |  |
| O=C1c2c([nH]c3ccc(C(F)(F)F)cc3c2=O)-c2cccn21 [Compound 282a, 7-(Trifluoromethyl)-9H-pyrrolizino[1,2-b]quinoline-9,10(4H)-dione] | 0.05 to 5 | 0.05 to 5 | 1 to 10 | 0.05 to 5 | 0.05 to 5 | 0.05 to 5 | 1 to 10 | 0.05 to 5 | 0.05 to 5 |  |  |  |  |  |  |  |
| N#Cc1cccc(Cn2c3c(c(=O)c4ccccc42)C(=O)n2cccc2-3)c1 [Compound 597a, 3-((9,10-Dioxo-9H-pyrrolizino[1,2-b]quinolin-4(10H)-yl)methyl)benzonitrile] | 0.05 to 5 | 0.05 to 5 | 1 to 10 | 0.05 to 5 | 0.05 to 5 | 0.05 to 5 | 1 to 10 | 0.05 to 5 | 0.05 to 5 |  |  |  |  |  |  |  |
| O=C1c2c(n(Cc3ccccc3Cl)c3ccccc3c2=O)-c2cccn21 [Compound 600a, 4-(2-Chlorobenzyl)-9H-pyrrolizino[1,2-b]quinoline-9,10(4H)-dione] | 0.05 to 5 | 0.05 to 5 | 0.1 to 1 | 0.05 to 5 | 0.05 to 5 | 0.05 to 5 | 0.1 to 1 | 0.05 to 5 | 0.05 to 5 |  |  |  |  |  |  |  |
| N#Cc1ccc2c(=O)c3c([nH]c2c1)-c1cccn1C3=O [Compound 512a, 9,10-Dioxo-4,10-dihydro-9H-pyrrolizino[1,2-b]quinoline-6-carbonitrile] | 0.05 to 5 | < 0.05 | 1 to 10 | 0.05 to 5 | 0.05 to 5 | 0.05 to 5 | 1 to 10 | 0.05 to 5 | 0.05 to 5 |  |  |  |  |  |  |  |
| O=C1c2c(nc3c(F)cccc3c2OCc2cccc(F)c2)-c2cccn21 [Compound 458b, 5-fluoro-9-((3-fluorobenzyl)oxy)-10H-pyrrolizino[1,2-b]quinolin-10-one] | 0.05 to 5 | 0.05 to 5 | 1 to 10 | 0.05 to 5 | 0.05 to 5 | 0.05 to 5 | 1 to 10 | 0.05 to 5 | 0.05 to 5 |  |  |  |  |  |  |  |
| O=C1c2c(n(CCF)c3ccccc3c2=O)-c2cccn21 [Compound 653a, 4-(2-Fluoroethyl)-9H-pyrrolizino[1,2-b]quinoline-9,10(4H)-dione] | 0.05 to 5 | 0.05 to 5 | 1 to 10 | 0.05 to 5 | 0.05 to 5 | 0.05 to 5 | 1 to 10 | 0.05 to 5 | 0.05 to 5 |  |  |  |  |  |  |  |
| COc1cc(COc2c3c(nc4ccccc24)-c2cccn2C3=O)cc(OC)c1 [Compound 580b, 9-((3,5-dimethoxybenzyl)oxy)-10H-pyrrolizino[1,2-b]quinolin-10-one] | 0.05 to 5 | 0.05 to 5 | 1 to 10 | 0.05 to 5 | 0.05 to 5 | 0.05 to 5 | 1 to 10 | 0.05 to 5 | 0.05 to 5 |  |  |  |  |  |  |  |
| N#Cc1ccc2[nH]c3c(c(=O)c2c1)C(=O)n1cccc1-3 [Compound 222a, 9,10-Dioxo-4,10-dihydro-9H-pyrrolizino[1,2-b]quinoline-7-carbonitrile] | 0.05 to 5 | 0.05 to 5 | 1 to 10 | 0.05 to 5 | 0.05 to 5 | 0.05 to 5 | 1 to 10 | 0.05 to 5 | 0.05 to 5 |  |  |  |  |  |  |  |
| O=C1c2c(n(Cc3c(F)cccc3F)c3ccccc3c2=O)-c2cccn21 [Compound 615a, 4-(2,6-Difluorobenzyl)-9H-pyrrolizino[1,2-b]quinoline-9,10(4H)-dione] | 0.05 to 5 | 0.05 to 5 | 10 to 50 | 0.05 to 5 | 0.05 to 5 | 0.05 to 5 | 0.1 to 1 | 0.05 to 5 | 0.05 to 5 |  |  |  |  |  |  |  |
| Cc1cccc2[nH]c3c(c(=O)c12)C(=O)n1cccc1-3 [Compound 678a, 8-Methyl-9H-pyrrolizino[1,2-b]quinoline-9,10(4H)-dione] |  |  | 1 to 10 |  |  |  | 1 to 10 |  |  | 0.05 to 5 | 0.05 to 5 | 0.05 to 5 | 0.05 to 5 | 0.05 to 5 | 0.05 to 5 | 0.05 to 5 |
| O=C1c2c(n(CCCCN3CCNCC3)c3ccccc3c2=O)-c2cccn21 [Compound 670a, 4-(4-(Piperazin-1-yl)butyl)-9H-pyrrolizino[1,2-b]quinoline-9,10(4H)-dione] |  |  | 1 to 10 |  |  |  | 0.1 to 1 |  |  | 0.05 to 5 | 0.05 to 5 | < 0.05 | < 0.05 | 0.05 to 5 | 0.05 to 5 | 0.05 to 5 |
| O=C1c2c(nc3ccc(OC(F)(F)F)cc3c2O)-c2cccn21 [Compound 306b, 9-hydroxy-7-(trifluoromethoxy)-10H-pyrrolizino[1,2-b]quinolin-10-one] | 0.05 to 5 | 0.05 to 5 | 0.1 to 1 | 0.05 to 5 | 0.05 to 5 | 0.05 to 5 | 1 to 10 | 0.05 to 5 | 0.05 to 5 |  |  |  |  |  |  |  |
| O=C1c2nc3ccccc3c(OCCCN3CCOCC3)c2-c2cccn21 [Compound 787b, 11-(3-morpholinopropoxy)-5H-pyrrolizino[2,1-b]quinolin-5-one] |  |  | 10 to 50 |  |  |  | 0.1 to 1 |  |  | 0.05 to 5 | 0.05 to 5 | 0.05 to 5 | 0.05 to 5 | 0.05 to 5 | 0.05 to 5 | 0.05 to 5 |
| O=C1c2c(nc3ccccc3c2OCc2ccccc2[N+](=O)[O-])-c2cccn21 [Compound 668b, 9-((2-nitrobenzyl)oxy)-10H-pyrrolizino[1,2-b]quinolin-10-one] |  |  | 1 to 10 |  |  |  | 1 to 10 |  |  | 0.05 to 5 | 0.05 to 5 | 0.05 to 5 | 0.05 to 5 | 0.05 to 5 | 0.05 to 5 | 0.05 to 5 |
| CC(C)(O)COc1c2c(nc3ccccc13)-c1cccn1C2=O [Compound 660b, 9-(2-hydroxy-2-methylpropoxy)-10H-pyrrolizino[1,2-b]quinolin-10-one] | 0.05 to 5 | 0.05 to 5 | 1 to 10 | 0.05 to 5 | 0.05 to 5 | 0.05 to 5 | 1 to 10 | 0.05 to 5 | 0.05 to 5 |  |  |  |  |  |  |  |
| O=C1c2c(n(Cc3cc(C(F)(F)F)ccc3Cl)c3ccccc3c2=O)-c2cccn21 [Compound 611a, 4-(2-Chloro-5-(trifluoromethyl)benzyl)-9H-pyrrolizino[1,2-b]quinoline-9,10(4H)-dione] | 0.05 to 5 | 0.05 to 5 | 10 to 50 | 0.05 to 5 | 0.05 to 5 | 0.05 to 5 | 0.1 to 1 | 0.05 to 5 | 0.05 to 5 |  |  |  |  |  |  |  |
| O=C1c2c(n(Cc3ccc(C(F)(F)F)cc3)c3ccccc3c2=O)-c2cccn21 [Compound 591a, 4-(4-(Trifluoromethyl)benzyl)-9H-pyrrolizino[1,2-b]quinoline-9,10(4H)-dione] | 0.05 to 5 | 0.05 to 5 | 0.1 to 1 | 0.05 to 5 | 0.05 to 5 | 0.05 to 5 | 1 to 10 | 0.05 to 5 | 0.05 to 5 |  |  |  |  |  |  |  |
